Here are results for one compound from ChEMBL document CHEMBL4819087, “Identification and optimization of 3-bromo-N'-(4-hydroxybenzylidene)-4-methylbenzohydrazide derivatives as mTOR inhibitors that induce autophagic cell death and apoptosis in triple-negative breast cancer” (Eur J Med Chem, 2021).

The target of test [1] is Serine/threonine-protein kinase mTOR (Homo sapiens, UniProt P42345). Put plainly: Inhibition of mTOR in human MDA-MB-468 cells assessed as reduction in P70S6 protein level at 0.5 to 2 uM after 24 hrs by Western blot analysis. Format: cell-based. Conditions: dose 0.5-2 µM. (In western blotting, separated proteins are transferred to a membrane and probed.)
The subject of test [2] is MDA-MB-468. Put plainly: Inhibition of colony formation in human MDA-MB-468 cells measured after 14 days by crystal violet staining based assay. Type of test: functional, cell-based. Conditions: dose 5-10 µM, time 14.0 day.
Test [3] has as its system MDA-MB-231. Put plainly: Induction of apoptosis in human MDA-MB-231 cells assessed as early apoptotic cells at 10 uM after 24 hrs by AnnexinV-FITC/PI staining based flow cytometry analysis (reference value: 2.43 to 2.63%). Type of test: functional.
Test [4] has as its system MDA-MB-468. Put plainly: Induction of apoptosis in human MDA-MB-468 cells assessed as necrotic cells at 5 uM after 24 hrs by AnnexinV-FITC/PI staining based flow cytometry analysis (reference value: 1.56%). Type of test: functional.
In test [5] the test system is MDA-MB-468. Put plainly: Induction of apoptosis in human MDA-MB-468 cells assessed as early apoptic cells at 10 uM after 24 hrs by AnnexinV-FITC/PI staining based flow cytometry analysis (reference value: 0.51 to 2.55%). Format: functional.
Test [6] has as its system MDA-MB-468. Put plainly: Induction of autophagy in human MDA-MB-468 cells expressing mRFP-EGFP-LC3B at 5 uM measured after 24 hrs by fluorescence microscopic analysis. Format: functional, cell-based.

The source made the active and inactive calls. No cut-off for these calls is given here.

For `C/C(=N\NC(=O)c1cccc(Br)c1)c1ccc(C(=O)Nc2nc3ccccc3[nH]2)cc1`, in test [1], the inhibition entry is “Active”. In addition, in test [2], the inhibition entry is “Dose-Dependent Effect”. The Activity is on record as 12.9% in test [3], 0.87% in test [4] and 12% in test [5]. In addition, the outcome in test [6] was Active.
